Results from US20090011400A1, “Substrate switched ammonia lyases and mutases” (The Salk Institute for Biological Studies and The Regents …, priority 2006, published 2009).
Numbering of substitutions follows the chain as printed. Names and notes keep the numbering of the source.

How the values were obtained:
PcPAL = PcPAL (Petroselinum crispum, UniProt P24481); conditions: substrate L-Phe, read-out: AIP Ki; cited from earlier work
RsTAL = molecular target: T1, RsTAL (Cereibacter sphaeroides, UniProt Q3IWB0); assay: Crystal soaking experiments of RsTAL with ligands; type: binding, Rhodobacter sphaeroides; conditions: wild type RsTAL crystals soaked with ligand
T1 construct: His8 (octahistidine), thrombin-cleavable (N, cleaved yes); made in house; host or cells: E. coli BL21(DE3)
T1 sequence (Q3IWB0 1-523): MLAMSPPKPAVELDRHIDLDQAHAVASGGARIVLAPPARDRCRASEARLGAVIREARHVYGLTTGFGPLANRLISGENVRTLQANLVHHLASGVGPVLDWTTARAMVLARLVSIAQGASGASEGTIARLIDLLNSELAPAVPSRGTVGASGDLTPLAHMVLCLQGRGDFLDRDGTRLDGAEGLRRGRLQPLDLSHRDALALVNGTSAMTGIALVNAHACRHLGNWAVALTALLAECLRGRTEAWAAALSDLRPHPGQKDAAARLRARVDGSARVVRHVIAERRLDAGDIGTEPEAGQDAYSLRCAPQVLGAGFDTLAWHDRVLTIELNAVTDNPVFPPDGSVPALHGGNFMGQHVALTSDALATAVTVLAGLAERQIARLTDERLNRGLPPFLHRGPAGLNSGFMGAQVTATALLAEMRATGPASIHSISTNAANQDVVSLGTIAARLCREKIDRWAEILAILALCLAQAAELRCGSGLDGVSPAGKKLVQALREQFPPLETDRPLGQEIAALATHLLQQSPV
Experimental: Monoclinic crystals of RsTAL (space group […]) were grown from a 1:1 mixture of protein solution (20 mg/ml in 12.5 mM Tris-HCl, pH 7.5, 50 mM NaCl) and a reservoir solution (0.1 M MOPSO—Na^+, pH 7.0, 7% (w/v) polyethylene glycol 8000, 0.3 M ammonium acetate, 2 mM dithiothreitol, 35 mM cyclohexylbutanoyl-N-hydroxyethylglucamide) using vapor diffusion against reservoir solutions at 4° C. Crystal growth typically occurred over a period of one to three weeks and was expedited through microseeding. […] Crystals of RsTAL in complex with small molecule ligands were produced by soaking crystals for 24-48 hrs in reservoir solutions supplemented with 10-20 mM coumaric acid, caffeic acid, cinnamic acid or AIP.

wild type RsTAL = molecular target: T2, wild type RsTAL (Cereibacter sphaeroides, UniProt Q3IWB0); assay: Inhibition of enzyme activity by AIP, wild type RsTAL; type: biochemical, Rhodobacter sphaeroides
T2 construct: only residues 1 to 7 and the C-terminal residue 523 of each of the eight RsTAL monomers are poorly ordered; His8 (octahistidine), thrombin-cleavable (N, cleaved yes); made in house; host or cells: E. coli BL21(DE3)
T2 sequence (Q3IWB0 1-523): T1 sequence (Q3IWB0 1-523)
Experimental: (§1) The inhibition of enzyme activity by AIP was measured with a similar assay system, except that the enzyme was pre-incubated for 7 min in the presence of fixed concentrations of AIP. Inhibition of PAL activity of wild type RsTAL was measured with 15 μg protein, six AIP concentrations between 0 and 20 μM, and initial L-Phe concentrations between 9.6 and 25.6 mM. Inhibition of PAL activity of the H89F mutant was measured with 10 μg protein, five AIP concentrations between 0 and 5 μM, with initial L-Phe concentrations between 0.4 and 1.6 mM. Duplicate sets of enzyme assays were performed and a Dixon plot was used for the estimation of the AIP inhibition constant, Ki. AIP was a gift from Dr. Jerzy Zon, Wroclaw University, Poland.

H89F RsTAL = molecular target: T3, H89F RsTAL (Cereibacter sphaeroides, UniProt Q3IWB0, H89F); assay: Inhibition of PAL activity by AIP, H89F RsTAL; type: biochemical, Rhodobacter sphaeroides
T3 construct: mutant proteins were expressed and purified as described for wild type RsTAL; His8 (octahistidine), thrombin-cleavable (N, cleaved yes); made in house; host or cells: E. coli BL21(DE3)
T3 sequence (Q3IWB0 1-523 H89F): T1 sequence (Q3IWB0 1-523) with H89F
Experimental: as §1

SmPAL = conditions: substrate L-Phe, read-out: AIP Ki; cited from earlier work
[1] = molecular target: T4, Rhodobacter sphaeroides tyrosine ammonia lyase (RsTAL) variant H89F (His89Phe) (Cereibacter sphaeroides, UniProt Q3IWB0, H89F); assay: Inhibition of PAL activity of H89F RsTAL by AIP; type: biochemical; design: mutant proteins were expressed and purified as described for wild type RsTAL; octahistidine (His8), thrombin-cleavable (N, cleaved yes); made in house; host or cells: E. coli BL21(DE3)
T4 sequence (Q3IWB0 1-523 H89F): T1 sequence (Q3IWB0 1-523) with H89F
Experimental: as §1

[2] = molecular target: T5, Rhodobacter sphaeroides tyrosine ammonia lyase (RsTAL), wild type (Cereibacter sphaeroides, UniProt Q3IWB0); assay: Ammonia lyase steady-state kinetics, wild type RsTAL; type: biochemical; conditions: wt RsTAL
T5 construct: octahistidine (His8), thrombin-cleavable (N, cleaved yes); made in house; host or cells: E. coli BL21(DE3)
T5 sequence (Q3IWB0 1-523): T1 sequence (Q3IWB0 1-523)
Experimental: (§2) TAL activity was measured spectrophotometrically by monitoring the formation of a conjugated aryl-acid product. The conversion of L-Tyr to p-coumarate was followed at 310 nm and L-Phe to cinnamate at 280 nm. The assay mixture (total volume 0.5 ml) contained 0.1 M Tris HCl (pH 8.5), and for each fixed amount of TAL, eight different initial concentrations of amino acid substrate. After pre-incubation of the enzyme at 37° C. for 2 min, reactions were initiated by the addition of substrate, and formation of product was monitored for 5 min. For wild type RsTAL, activity was assayed with 7.5 μg protein and initial L-Tyr concentrations between 0.01 and 2.4 mM, and PAL activity was assayed with 30 μg protein and initial L-Phe concentrations between 3.2 and 51.2 mM. For the RsTAL H89F mutant, PAL activity was assayed with 10 μg protein and initial L-Phe concentrations between 0.05 and 5.2 mM. Each series of assays were performed in triplicate, and a Hanes plot was used for the estimation of steady-state kinetic constants.

[3] = test system: SmPAL (Streptomyces maritimus phenylalanine ammonia lyase); conditions: cited from earlier work
[4] = test system: PcPAL (Petroselinum crispum phenylalanine ammonia lyase); conditions: cited from earlier work
[5] = test system: SeTAL (Saccharothrix espanaensis tyrosine ammonia lyase); conditions: cited from earlier work
[6] = molecular target: T4, Rhodobacter sphaeroides tyrosine ammonia lyase (RsTAL) variant H89F (His89Phe); assay: Ammonia lyase steady-state kinetics, H89F RsTAL
Experimental: (§3) TAL activity was measured spectrophotometrically by monitoring the formation of a conjugated aryl-acid product. The conversion of L-Tyr to p-coumarate was followed at 310 nm and L-Phe to cinnamate at 280 nm. The assay mixture (total volume 0.5 ml) contained 0.1 M Tris HCl (pH 8.5), and for each fixed amount of TAL, eight different initial concentrations of amino acid substrate. After pre-incubation of the enzyme at 37° C. for 2 min, reactions were initiated by the addition of substrate, and formation of product was monitored for 5 min. […] For the RsTAL H89F mutant, PAL activity was assayed with 10 μg protein and initial L-Phe concentrations between 0.05 and 5.2 mM. Each series of assays were performed in triplicate, and a Hanes plot was used for the estimation of steady-state kinetic constants.

[7] = test system: RcTAL (Rhodobacter capsulatus tyrosine ammonia lyase); conditions: cited from earlier work
[8] = test system: ZmPAL (Z. mays phenylalanine ammonia lyase); conditions: cited from earlier work
[9] = test system: PlPAL (Photorhabdus luminescens phenylalanine ammonia lyase); conditions: cited from earlier work
[10] = substrate: N[C@@H](Cc1ccccc1)C(=O)O; assay: purified protein, by the assay type; conditions: other: H89F RsTAL, pH 8.5, 37° C.
Experimental: as §3

[11] = substrate: N[C@@H](Cc1ccc(O)cc1)C(=O)O; assay: Ammonia lyase steady-state kinetics, wild type RsTAL; type: biochemical, Rhodobacter sphaeroides; conditions: other: wt RsTAL, pH 8.5, 37° C.
Experimental: as §2

[12] = substrate: N[C@@H](Cc1ccccc1)C(=O)O; assay: as above; type: biochemical, Rhodobacter sphaeroides; conditions: other: wt RsTAL, pH 8.5, 37° C.
Experimental: as §2

[13] = PAL activity: spectrophotometric steady-state kinetics, L-Phe to cinnamate; type: biochemical; conditions: substrate L-Phe
Experimental: as §2

NC1(P(=O)(O)O)Cc2ccccc2C1 [AIP, 2-aminoindan-2-phosphonate]
Ki (PcPAL): 25 nM
binding observed in RsTAL crystals (in words) (RsTAL): no significant binding
inhibition of RsTAL activity by AIP (in words) (wild type RsTAL; wild type RsTAL): weak inhibition
effect of AIP on activity with L-Tyr (in words) (wild type RsTAL; wild type RsTAL, substrate L-Tyr): unaffected
Ki (wild type RsTAL; wt RsTAL, substrate L-Phe, Dixon plot): 16300 nM
Ki (H89F RsTAL; H89F RsTAL, substrate L-Phe, Dixon plot): 600 nM
Ki lower than for wild type RsTAL (H89F RsTAL; H89F mutant with L-Phe versus wild type RsTAL): 27 fold
Ki (SmPAL): 1810 nM
Ki [1]: 600 nM

N[C@@H](Cc1ccc(O)c(O)c1)C(=O)O [L-DOPA, L-3,4-dihydroxyphenylalanine]
activity with L-DOPA ([2]; deamination): significant activity

N[C@@H](Cc1ccccc1)C(=O)O [L-Phe]
Km [3]: 23 µM
kcat [3]: 0.0048 s⁻¹
Km [4]: 17.2 µM
kcat [4]: 22 s⁻¹
Km [5]: 2860 µM
kcat [5]: 0.0038 s⁻¹
kcat ([6]; pH 8.5, 37° C.): 8.15 s⁻¹
Km [7]: 1280 µM
kcat [7]: 15.1 s⁻¹
Km [8]: 270 µM
kcat [8]: 10 s⁻¹
Km [9]: 320 µM
kcat [9]: 0.8 s⁻¹

N[C@@H](Cc1ccc(O)cc1)C(=O)O [L-Tyr]
Km [4]: 2500 µM
kcat [4]: 0.3 s⁻¹
Km [5]: 15.5 µM
kcat [5]: 0.015 s⁻¹
Km better for L-Tyr as compared to L-Phe ([2]; L-Tyr vs L-Phe): 150 fold
kcat ([2]; pH 8.5, 37° C.): 4.32 s⁻¹
activity with L-Tyr [6]: lacks activity
Km [7]: 15.6 µM
kcat [7]: 27.7 s⁻¹
Km [8]: 19 µM
kcat [8]: 0.9 s⁻¹

O=C(O)C=Cc1ccccc1 [cinnamic acid]
binding observed in RsTAL crystals (in words) (RsTAL): no significant binding

B1: Rhodobacter sphaeroides tyrosine ammonia lyase (RsTAL) variant H89F (His89Phe) (Cereibacter sphaeroides 2.4.1; H89F) (protein)
chain: T1 sequence (Q3IWB0 1-523) with H89F
Km [10]: 434 µM

B2: Rhodobacter sphaeroides tyrosine ammonia lyase (RsTAL), wild type (Cereibacter sphaeroides 2.4.1) (protein)
chain: T1 sequence (Q3IWB0 1-523)
notes: octahistidine (His8), thrombin-cleavable (N, cleaved yes); made in house; host or cells: E. coli BL21(DE3)
Km [11]: 74.2 µM
Km [12]: 11400 µM
kcat [12]: 13.1 s⁻¹
kcat/Km [12]: 1100 M⁻¹ s⁻¹

B3: H89F RsTAL: engineered RsTAL variant with the single amino acid substitution H89F (His 89 replaced by Phe) (protein)
chain: T1 sequence (Q3IWB0 1-523) with H89F
modifications: H89F mutant of Rhodobacter sphaeroides tyrosine ammonia lyase
increase in kcat/Km in comparison to wild type RsTAL [13]: 17 fold
